Consider 15 compounds from ChEMBL document CHEMBL3352048, “Development of 2-(4-oxoquinazolin-3(4H)-yl)acetamide derivatives as novel enoyl-acyl carrier protein reductase (InhA) inhibitors for the treatment of tuberculosis” (Eur J Med Chem, 2014).

In this assay the test system is Mycobacterium tuberculosis. Briefly: Antimycobacterial activity against isoniazid, rifampicin, ofloxacin and kanamycin-resistant Mycobacterium tuberculosis H37Rv ATCC 27294 clinical isolate after 28 days by two-fold serial dilution assay in presence of […] piperine efflux pump inhibitor. In kind it is functional. The following applies: H37Rv ATCC 27294, 672 h.

For orientation: MIC means the lowest concentration that inhibits growth of the organism. As to `O=C(Cn1cnc2ccc(Cl)cc2c1=O)Nc1cc(C(F)(F)F)ccc1Cl`, the MIC stood at 60.1 µM. For `O=C(Cn1cnc2ccccc2c1=O)Nc1ccccc1`, the MIC came to 22.4 µM. In the case of `CC[C@@H](CO)NCCN[C@@H](CC)CO` [ETHAMBUTOL], the MIC stood at 245 µM. As to `O=C(Cn1cnc2ccccc2c1=O)NCc1cccs1`, the MIC amounted to 20.9 µM. The result for `CO[C@H]1/C=C/O[C@@]2(C)Oc3c(C)c(O)c4c(O)c(c(/C=N/N5CCN(C)CC5)c(O)c4c3C2=O)NC(=O)/C(C)=C\C=C\[C@H](C)[C@H](O)[C@@H](C)[C@@H](O)[C@@H](C)[C@H](OC(C)=O)[C@@H]1C` [RIFAMPIN] reads 30.4 µM. As for `Cc1nc2ccccc2c(=O)n1CC(=O)NCc1cccs1`, the MIC came to 19.9 µM. Take `O=C(Cn1cnc2ccc(Cl)cc2c1=O)Nc1ccccc1`: the MIC was determined as 39.8 µM. Take `NNC(=O)c1ccncc1` [ISONIAZID]: the MIC is 45.6 µM. For the compound `O=C(Cn1cnc2ccccc2c1=O)NCc1nc2ccc([N+](=O)[O-])cc2s1`, the MIC turned out to be 4.09 µM. The figure for `O=C(Cn1cnc2ccc(Cl)cc2c1=O)NCc1cccs1` is 37.4 µM; for `O=C(Cn1cnc2ccccc2c1=O)NCc1ccco1` it is 11 µM. With `Cc1nc2ccc(Cl)cc2c(=O)n1CC(=O)Nc1ccccc1`, the MIC turned out to be 19.1 µM. The figure for `O=C(Cn1cnc2ccccc2c1=O)Nc1cc(C(F)(F)F)ccc1Cl` is 8.18 µM; for `Cc1nc2ccc(Cl)cc2c(=O)n1CC(=O)NCc1ccco1` it is 18.8 µM; for `O=C(Cn1cnc2ccc(Cl)cc2c1=O)NCc1ccco1` it is 39.3 µM.
